pIC50: −log10 of the molar value.
Columns and labels:
[1] = molecular target: T1, recombinant human LTA4 hydrolase (rhLTA4H) (Homo sapiens, UniProt P09960); test: Recombinant human LTA4 hydrolase assay for LTA4 hydrolase inhibitor activity; assay type: biochemical; conditions: rhLTA4H, LTB4 by immunoassay; single determination or average of two or more; mark after value = form tested: ′ free base, ″ hydrochloride, ^ formate; read-out: IC50
T1 construct: made in house; host or cells: Spodoptera frugiperda (Sf-9) cells, baculovirus (pFastBac1)
T1 sequence (P09960 1-611): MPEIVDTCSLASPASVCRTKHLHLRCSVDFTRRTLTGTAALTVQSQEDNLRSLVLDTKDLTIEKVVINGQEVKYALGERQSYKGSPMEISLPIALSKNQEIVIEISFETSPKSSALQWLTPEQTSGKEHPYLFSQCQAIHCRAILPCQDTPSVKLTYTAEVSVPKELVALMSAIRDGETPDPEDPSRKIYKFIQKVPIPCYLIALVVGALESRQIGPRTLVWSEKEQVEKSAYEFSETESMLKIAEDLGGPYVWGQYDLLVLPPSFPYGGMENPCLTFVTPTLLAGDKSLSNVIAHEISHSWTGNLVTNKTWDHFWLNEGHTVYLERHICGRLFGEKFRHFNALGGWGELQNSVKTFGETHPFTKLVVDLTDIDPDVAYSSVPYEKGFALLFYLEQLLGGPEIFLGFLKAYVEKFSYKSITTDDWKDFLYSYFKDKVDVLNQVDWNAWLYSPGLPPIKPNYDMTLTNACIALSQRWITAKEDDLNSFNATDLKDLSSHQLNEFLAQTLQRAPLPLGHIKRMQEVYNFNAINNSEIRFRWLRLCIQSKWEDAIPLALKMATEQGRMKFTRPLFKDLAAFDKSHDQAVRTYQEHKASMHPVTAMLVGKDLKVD
How it was run: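 LTB4 formation, measured by enzyme immunoassay, was the read-out. The enzyme, recombinant human LTA4H expressed in Sf-9 insect cells (10 ng per reaction), was exposed to compound for 10 min at room temperature before hydrolysed-ester LTA4 substrate was added for 30 min. Enzyme-free negatives were included.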

[2] = test system: LTB4 production in murine blood (LTA4H); test: LTB4 production by calcium ionophore-stimulated murine blood for LTA4H inhibitor activity; assay type: cell-based, CD-1 mice; conditions: Mus musculus; murine blood diluted 1 in 15, A23187 stimulated; single determination or average; mark after value = form tested: ′ free base, ″ hydrochloride, ^ formate; read-out: IC50
How it was run: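 LTB4 was measured by ELISA in supernatants after calcium ionophore A23187 stimulation (final 7 μg/mL, 30 min, 37° C) of CD-1 mouse blood collected on heparin. Compound was preincubated with the blood for 15 min beforehand. Values come from one determination or average several.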

[3] = test system: arachidonic acid-induced neutrophil influx in murine ear tissue; test: Murine arachidonic acid-induced inflammation model: neutrophil influx (myeloperoxidase) in ear; assay type: in vivo, Balb/c mice; conditions: Mus musculus; 30 mg/kg oral gavage, 60 min before topical arachidonic acid, ear biopsy after 3 h; percent inhibition of neutrophil influx; read-out: % Inh. MPO
Protocol: (§1) Assay 3: Murine Arachidonic Acid-Induced Inflammation Model
(§2) LTA4H inhibitor compounds of the present invention were dissolved in 20% cyclodextran/H2O at a concentration of 3 mg/mL. The solutions were administered by oral gavage to female Balb/c mice weighing approximately 20 grams each (0.2 mL per mouse, 30 mg of LTA4H inhibitor compound per kg). Sixty minutes after being administered an LTA4 inhibitor, each mouse received topical application of 20 μL of arachidonic acid (100 mg/mL in acetone) to the left ear and 20 μL of acetone only to the right ear. After 3 h, the mice were sacrificed, blood was withdrawn in heparinized syringes, and 8 mm ear biopsies were taken. Ear biopsies were weighed to determine edema and then frozen at −80° C. until needed for determination of neutrophil influx.
Neutrophil influx was quantified by measuring the activity of myeloperoxidase (MPO), a neutrophil-specific enzyme. […] Debris was removed by centrifugation at 14000×g for 10 min. […] The microtiter plate contents were held at room temperature until the sample with the highest concentration of MPO reached an absorbance value of 0.4 at 650 nm. The reaction was stopped by addition of 50 μL 1 M H2SO4 to each sample well, and the myeloperoxidase activity in each sample was determined from the absorbance at […]. The background value from the right ear, treated only with acetone, was subtracted from that for the left ear, treated with arachidonic acid in acetone, for each animal. The percent inhibition of neutrophil influx (% Inh. MPO) by compounds of the invention was determined by comparison to animals treated identically, except that the solution administered by oral gavage was devoid of inhibitor compound. All compounds were assayed in their free base form.

[4] = test system: ex vivo calcium ionophore-stimulated LTB4 production in whole blood; test: Murine arachidonic acid-induced inflammation model: ex vivo stimulated LTB4 production in blood; set-up: species or system Balb/c mice; conditions: Mus musculus; 30 mg/kg oral gavage; blood diluted 1:1, A23187 stimulated ex vivo; percent inhibition of LTB4 production; read-out: % Inh. LTB4
Protocol: as §1, §2
The microtiter plate contents were incubated for 30 min at 37° C. in a humidified incubator. The reaction was terminated by centrifugation (833×g, 10 min at 4° C.). Supernatants were analyzed for LTB4 by a commercially available enzyme-linked immunoassay (Cayman Chemical Co.) in accordance with the manufacturer's instructions. The percent inhibition of ex vivo stimulated LTB4 production (% Inh. LTB4) was determined by comparison to animals treated identically except that the solution administered by oral gavage was devoid of inhibitor compound.

Structure (SMILES)	pIC50 [1]	pIC50 [2]	inhibition at 30 mg/kg [3]	inhibition at 30 mg/kg [4]
CC(=O)N1C[C@H]2C[C@@H]1CN2Cc1coc2cc(Oc3nc4ncccc4s3)ccc12 [Example 157, (1R,4R)-1-{5-[6-(Thiazolo[4,5-b]pyridin-2-yloxy)-benzofuran-3-ylmethyl]-2,5-diaza-bicyclo[2.2.1]hept-2-yl}-ethanone]	8.10	7.80	93%	97%
c1cnc2nc(Oc3ccc4c(CN5C[C@@H]6C[C@H]5CO6)coc4c3)sc2c1 [Example 158, (1S,4S)-2-[3-(2-Oxa-5-aza-bicyclo[2.2.1]hept-5-ylmethyl)-benzofuran-6-yloxy]-thiazolo[4,5-b]pyridine]	8.22	7.49	87%	95%
C[C@H]1COCCN1Cc1coc2cc(Oc3nc4ncccc4s3)ccc12 [Example 159, (S)-2-[3-(3-Methyl-morpholin-4-ylmethyl)-benzofuran-6-yloxy]-thiazolo[4,5-b]pyridine]	7.80	7.10	78%	83%
NC(=O)N1C[C@H]2C[C@@H]1CN2Cc1coc2cc(Oc3nc4ncccc4s3)ccc12 [Example 160, (1R,4R)-5-[6-(Thiazolo[4,5-b]pyridin-2-yloxy)-benzofuran-3-ylmethyl]-2,5-diaza-bicyclo[2.2.1]heptane-2-carboxylic acid amide]	8.30	7.31	77%	90%
CC(=O)NCC1CCN(Cc2coc3cc(Oc4nc5ncccc5s4)ccc23)CC1 [Example 162, N-{1-[6-(Thiazolo[4,5-b]pyridin-2-yloxy)-benzofuran-3-ylmethyl]-piperidin-4-ylmethyl}-acetamide]	9.00	7.59	87%	90%
CC(=O)N1CCC2(CCN(Cc3cc4cc(Oc5nc6ncccc6s5)ccc4o3)CC2)CC1 [Example 167, 1-{9-[5-(Thiazolo[4,5-b]pyridin-2-yloxy)-benzofuran-2-ylmethyl]-3,9-diaza-spiro[5.5]undec-3-yl}-ethanone]	7.06	6.66	77%	78%
CC(=O)N1C[C@@H]2C[C@H]1CN2Cc1cc2ccc(Oc3nc4ncccc4s3)cc2o1 [Example 168, (1S,4S)-1-{5-[6-(Thiazolo[4,5-b]pyridin-2-yloxy)-benzofuran-2-ylmethyl]-2,5-diaza-bicyclo[2.2.1]hept-2-yl}-ethanone]	7.44	6.68	74%	70%
CC(=O)N1C[C@@H]2CC[C@H]1CN2Cc1cc2cc(Oc3nc4ncccc4s3)ccc2o1 [Example 169, meso-1-{5-[5-(Thiazolo[4,5-b]pyridin-2-yloxy)-benzofuran-2-ylmethyl]-2,5-diaza-bicyclo[2.2.2]oct-2-yl}-ethanone]	8.52	7.64	92%	85%
CC(=O)N1C[C@@H]2CC[C@H]1CN2Cc1cc2ccc(Oc3nc4ncccc4s3)cc2o1 [Example 170, meso-1-{5-[6-(Thiazolo[4,5-b]pyridin-2-yloxy)-benzofuran-2-ylmethyl]-2,5-diaza-bicyclo[2.2.2]oct-2-yl}-ethanone]	8.30	7.10	70%	76%
CN(Cc1ccncc1)Cc1coc2cc(Oc3nc4ncccc4s3)ccc12 [Example 177, Methyl-pyridin-4-ylmethyl-[6-(thiazolo[4,5-b]pyridin-2-yloxy)-benzofuran-3-ylmethyl]-amine]	7.89	6.96	12%	70%
CC(=O)N1CCCN(Cc2coc3cc(Oc4nc5ncccc5s4)ccc23)CC1 [Example 182, 1-{4-[6-(Thiazolo[4,5-b]pyridin-2-yloxy)-benzofuran-3-ylmethyl]-[1,4]diazepan-1-yl}-ethanone]	8.05	7.41	67%	85%
CS(=O)(=O)C1CCN(Cc2coc3cc(Oc4nc5ncccc5s4)ccc23)CC1 [Example 183, 2-[3-(4-Methanesulfonyl-piperidin-1-ylmethyl)-benzofuran-6-yloxy]-thiazolo[4,5-b]pyridine]	8.22	7.24	85%	83%
COCCN(C)Cc1coc2cc(Oc3nc4ncccc4s3)ccc12 [Example 184, (2-Methoxy-ethyl)-methyl-[6-(thiazolo[4,5-b]pyridin-2-yloxy)-benzofuran-3-ylmethyl]-amine]	8.10	7.31	53%	82%
c1cnc2nc(Oc3ccc4c(CN5CCCC5)coc4c3)sc2c1 [Example 185, 2-(3-Pyrrolidin-1-ylmethyl-benzofuran-6-yloxy)-thiazolo[4,5-b]pyridine]	8.40	7.92	64%	75%
COC[C@@H]1CCCN1Cc1coc2cc(Oc3nc4ncccc4s3)ccc12 [Example 186, (2S)-2-[3-(2-Methoxymethyl-pyrrolidin-1-ylmethyl)-benzofuran-6-yloxy]-thiazolo[4,5-b]pyridine]	9.00	8.22	79%	86%
CC(=O)N[C@H]1C[C@@H]2C[C@H]1CN2Cc1coc2cc(Oc3nc4ncccc4s3)ccc12 [Example 187, (1S,4S,5S)—N-{2-[6-(Thiazolo[4,5-b]pyridin-2-yloxy)-benzofuran-3-ylmethyl]-2-aza-bicyclo[2.2.1]hept-5-yl}-acetamide]	9.00	7.68	88%	83%
CC(=O)N[C@H]1C[C@@H]2C[C@H]1CN2Cc1cc2cc(Oc3nc4ncccc4s3)ccc2o1 [Example 188, (1S,4S,5S)—N-{2-[5-(Thiazolo[4,5-b]pyridin-2-yloxy)-benzofuran-2-ylmethyl]-2-aza-bicyclo[2.2.1]hept-5-yl}-acetamide]	7.59	7.20	78%	73%
CC(=O)N[C@H]1C[C@@H]2C[C@H]1CN2Cc1cc2ccc(Oc3nc4ncccc4s3)cc2o1 [Example 189, (1S,4S,5S)—N-{2-[6-(Thiazolo[4,5-b]pyridin-2-yloxy)-benzofuran-2-ylmethyl]-2-aza-bicyclo[2.2.1]hept-5-yl}-acetamide]	8.52	7.15	84%	76%

From patent publication US8399465B2, “Compounds with two fused bicyclic heteroaryl moieties as modulators of leukotriene A4 hydrolase” (Janssen Pharmaceutica NV, priority 2009, dated 2013)
